Assay results from US20040101534A1 (priority 2002, published 2004).
Entries after “also recorded” stand apart in the source; their conditions may differ.

Key:
[1] = tested on: T2 cells loaded with pp65495-503; conditions: mouse, in vivo; cited from earlier work
human PBL = conditions: cited from earlier work
[2] = tested on: JA2.1 T cells infected with vaccinia virus expressing pp65; design: species or system HLA A2.1/K^b transgenic mice; conditions: mouse, in vivo, sc

| Sequence | CTL response directed at the pp65495-503 CTL epitope [1] | CTL precursor memory response (human PBL) | recognition of endogenously processed pp65 [2] |
| --- | --- | --- | --- |
| NLVPMVATV [pp65495-503] | robust CTL response | stimulates a CTL precursor (CTLp) memory response | – |
| VSTIVPYIGPALNIAAANLVPMVATV [Tet639V] | – | – | evident; also recorded: more prominent |
